Test results from article PMC7824897, “Selection of the First ^99mTc-Labelled Somatostatin Receptor Subtype 2 Antagonist for Clinical Translation—Preclinical Assessment of Two Optimized Candidates” (Pharmaceuticals, 2020).
One block for each molecule: values may come before it. Bridges are numbered along the chain shown (N, C = ends). [ ]: non-standard residue; d: D form. The star is where a group is joined. N4 = 6-carboxy-1,4,8,11-tetraazaundecane chelator, NCCNCC(CNCCN)C(=O)*; dPhe(4-NHCONH2) = NC(=O)Nc1ccc(C[C@@H](N)C(=O)O)cc1; Phe(4-Cl) = N[C@@H](Cc1ccc(Cl)cc1)C(=O)O

Experiments:
[1] = target: T1, HEK-SST2 cells (human SST2 receptor) (Homo sapiens, UniProt P30874); test: Dissociation of cell-surface bound radiotracer with or without competitor; assay type: cell-based
T1 construct: expressed in transfected cells; host or cells: HEK293 (HEK-SST2), provided by Prof; Stefan Schulz, Jena University Hospital

[2] = parameters: species or system human
From the text: To account for various possible locations of the tumour, we used two S-values. One was the value for the liver and is representative for the liver lesions. Other was the “average abdominal S-value”, which was the average S-value for the following organs: stomach, liver, gallbladder, spleen, pancreas, small intestine, kidneys, large intestine, and adrenal glands. Estimated dose to various organs, average total body dose and effective dose are summarized in Table 3 for both radiotracers and two typical tumour locations.
Dosimetric calculations were based on the biodistribution of [^99mTc]Tc-TECANT-1 and [^99mTc]Tc-TECANT-2 (Table 3). […] Percent of injected activity per organ in a human model was evaluated according to the animal data extrapolation model:(2) (%IA/organ)human=[(%IA/g)mouse×Mmouse(g)]×(m(g)/M(kg))human
Here m is the organ mass and M is the total body weight of mouse or human. Average total weight of the mouse was measured, while human phantom has the total weight of 73 kg. The %IA/g and %IA/organ is the percentage of the injected activity concentration (i.e., per gram of tissue) and per organ, respectively. For the tumour, we assumed that the percent of injected activity uptake into the tumour is the same for mouse and human.
Subsequently, percentage of the injected activity per organ was folded with the decay curve of ^99mTc and interpolated with the exponential function. The interpolation function was used to estimate initial %ID/organ and the time-integrated activity concentration (TIAC). Absorbed dose per injected activity for various organs was calculated with the TIAC factors and S-values for a standard person from the OpenDose project. Effective dose was evaluated according to the ICRP 103 recommendations.
We also assumed that the remaining activity from the organs and tumour ends up in the bladder.

[3] = assay type: physicochemical; details: pH 7.4
Description: Determination of the distribution coefficient (log D) was performed by the shake-flask method in 1:1 mixture of octanol/Phosphate buffered saline (PBS). Then, 50 µL of [^99mTc]Tc-TECANT-1 or [^99mTc]Tc-TECANT-2 solution was diluted up to 500 µL with PBS (pH 7.4; 8 mM phosphate). Next, 20 µL of this solution was added to six eppendorf tubes, each containing 500 µL octanol and 480 µL PBS. The samples were vortexed for 15 min at 1400 rpm followed by centrifugation for 2 min at 4500 rpm. Aliquots of 100 µL from each phase were taken and measured in a γ-counter. The log D was calculated as the average of the logarithmic values (n = 3, six technical replicates) of the ratio between the radioactivity in the octanol and the PBS phase.

[4] = target: T1, HEK-SST2 cells (human SST2 receptor); test: Internalization and cell-surface binding in HEK-SST2 cells; assay type: cell-based; details: 37 °C
[5] = in vivo; details: female, mouse, 20 pmol, total radioactivity
[6] = target: T2, T7-epitope tagged human SST2 receptor (somatostatin receptor subtype 2) (human, UniProt P30874 1-369); test: radioligand binding; dissociation with competitor: as without, but medium with 2.5 µM of the respective unlabelled TECANT analogue; details: one partner purified
T2 construct: somatostatin receptor subtype 2 (SST2), human, expressed in HEK293 cells; also called HEK-SST2 (the cells that express it); source: HEK293 cell line expressing it (HEK-SST2), provided by Professor Stefan Schulz; on intact cells

[7] = target: T2, T7-epitope tagged human SST2 receptor …; test: radioligand binding; dissociation without competitor: radiotracer 0.25 nM bound to HEK-SST2 cells for 2 h at 4 °C, washed, then medium at 37 °C replaced at 10, 20, 30, 60, 120 and 240 min; cell-associated radiotracer left; details: one partner purified
[8] = target: T2, T7-epitope tagged human SST2 receptor …; test: radioligand binding; competition on 5 x 10^5 HEK-SST2 cells in 96-well filter plates; radioligand [^177Lu]Lu-DOTA-TATE (1 nM); competitor 0.004 to 4000 nM; 2 h at 4 °C; TRIS buffer; apparent IC50; details: one partner purified
[9] = athymic nude-Foxn1^nu/Foxn1^+, Biodistribution Heart
[10] = athymic nude-Foxn1^nu/Foxn1^+, Biodistribution Liver
[11] = athymic nude-Foxn1^nu/Foxn1^+, Biodistribution Lung
[12] = athymic nude-Foxn1^nu/Foxn1^+, Biodistribution Pancreas
[13] = athymic nude-Foxn1^nu/Foxn1^+, Biodistribution Spleen
[14] = athymic nude-Foxn1nu/Foxn1+, Biodistribution Adrenals
[15] = athymic nude-Foxn1nu/Foxn1+, Biodistribution Blood
[16] = athymic nude-Foxn1nu/Foxn1+, Biodistribution Bone
[17] = athymic nude-Foxn1nu/Foxn1+, Biodistribution HEK-SST2 (+) tumour uptake
[18] = athymic nude-Foxn1nu/Foxn1+, Biodistribution Intestine
[19] = athymic nude-Foxn1nu/Foxn1+, Biodistribution Kidneys
[20] = athymic nude-Foxn1nu/Foxn1+, Biodistribution Muscle
[21] = athymic nude-Foxn1nu/Foxn1+, Biodistribution Pituitary
[22] = athymic nude-Foxn1nu/Foxn1+, Biodistribution Stomach

T1 sequence (P30874 whole entry): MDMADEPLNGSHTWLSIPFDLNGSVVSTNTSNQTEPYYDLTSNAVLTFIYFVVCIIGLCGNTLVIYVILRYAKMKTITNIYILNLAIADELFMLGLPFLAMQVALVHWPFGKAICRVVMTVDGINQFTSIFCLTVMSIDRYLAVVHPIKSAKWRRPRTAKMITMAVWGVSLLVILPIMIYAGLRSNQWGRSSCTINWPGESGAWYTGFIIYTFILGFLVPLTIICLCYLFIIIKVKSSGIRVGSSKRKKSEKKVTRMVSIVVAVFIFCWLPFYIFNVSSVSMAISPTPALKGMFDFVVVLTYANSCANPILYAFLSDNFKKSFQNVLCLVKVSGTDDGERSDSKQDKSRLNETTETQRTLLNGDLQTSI
T2 sequence (P30874 whole entry): as above

- estimated dissociation half-life ([1]; absence of competitor): 40.3 min
- total binding remaining (dissociation assay) ([1]; after 4 h, 37 °C, absence of competitor): 27.2 ± 6.3%
- estimated dissociation half-life ([1]; presence of competitor): 7.5 min
- bound fraction still remaining in the cells ([1]; presence of excess of the competitor, 37 °C): 1.1 ± 0.1%
- Average total body dose [2]: 3.3 μGy/MBq
- Dose Bone [2]: 4.0 μGy/MBq
- Dose Muscle [2]: 2.6 μGy/MBq
- Dose Red marrow [2]: 3.4 μGy/MBq
- Dose Small intestine wall [2]: 1.9 μGy/MBq
- biological half-life of clearance of remaining activity (rest of the body) to the bladder [2]: 13.3 h
- effective dose [2]: 4.3 mSv
- logD [3]: -1.63 ± 0.16
- internalization (internalized fraction) ([4]; 30 min): 4.4 ± 0.5%
- internalization (internalized fraction) ([4]; 4 h): 11.7 ± 1.4%
- cell surface binding ([4]; 4 h, % of total radioactivity added): 36.9 ± 8.5%
- tissue uptake at 1 h [5, 9]: 1.64 ± 0.6 %ID/g
- tissue uptake at 4 h [5, 9]: 0.26 ± 0.05 %ID/g
- tissue uptake at 24 h [5, 9]: 0.05 ± 0.01 %ID/g
- tissue uptake at 1 h [5, 10]: 5.38 ± 1.36 %ID/g
- tissue uptake at 4 h [5, 10]: 3.72 ± 0.92 %ID/g
- tissue uptake at 24 h [5, 10]: 1.07 ± 0.24 %ID/g
- tissue uptake at 1 h [5, 11]: 17 ± 5.75 %ID/g
- tissue uptake at 4 h [5, 11]: 2.52 ± 0.53 %ID/g
- tissue uptake at 24 h [5, 11]: 0.3 ± 0.05 %ID/g
- tissue uptake at 1 h [5, 12]: 16.4 ± 4.53 %ID/g
- tissue uptake at 4 h [5, 12]: 1.96 ± 0.58 %ID/g
- tissue uptake at 24 h [5, 12]: 0.12 ± 0.05 %ID/g
- tissue uptake at 1 h [5, 13]: 1.61 ± 0.46 %ID/g
- tissue uptake at 4 h [5, 13]: 0.55 ± 0.15 %ID/g
- tissue uptake at 24 h [5, 13]: 0.24 ± 0.06 %ID/g
- tissue uptake at 1 h [5, 14]: 5.14 ± 1.79 %ID/g
- tissue uptake at 4 h [5, 14]: 1.25 ± 0.33 %ID/g
- tissue uptake at 24 h [5, 14]: 0.73 ± 0.2 %ID/g
- tissue uptake at 1 h [5, 15]: 1.8 ± 0.44 %ID/g
- tissue uptake at 4 h [5, 15]: 0.23 ± 0.05 %ID/g
- tissue uptake at 24 h [5, 15]: 0.03 ± 0.01 %ID/g
- tissue uptake at 1 h [5, 16]: 1.67 ± 0.94 %ID/g
- tissue uptake at 4 h [5, 16]: 0.41 ± 0.14 %ID/g
- tissue uptake at 24 h [5, 16]: 0.2 ± 0.19 %ID/g
- tissue uptake at 1 h [5, 17]: 19.1 ± 4.47 %ID/g
- tissue uptake at 4 h [5, 17]: 28.4 ± 4.84 %ID/g
- tissue uptake at 24 h [5, 17]: 11 ± 4.69 %ID/g
- tissue uptake at 4 h ([5]; athymic nude-Foxn1nu/Foxn1+, Biodistribution HEK-SST2 (−) tumour uptake): 0.38 ± 0.13 %ID/g
- tissue uptake at 1 h [5, 18]: 4.05 ± 1.12 %ID/g
- tissue uptake at 4 h [5, 18]: 0.86 ± 0.4 %ID/g
- tissue uptake at 24 h [5, 18]: 0.31 ± 0.17 %ID/g
- tissue uptake at 1 h [5, 19]: 43.6 ± 11.4 %ID/g
- tissue uptake at 4 h [5, 19]: 25.9 ± 5.23 %ID/g
- tissue uptake at 24 h [5, 19]: 3.42 ± 1.44 %ID/g
- tissue uptake at 1 h [5, 20]: 0.69 ± 0.22 %ID/g
- tissue uptake at 4 h [5, 20]: 0.15 ± 0.04 %ID/g
- tissue uptake at 24 h [5, 20]: 0.06 ± 0.03 %ID/g
- tissue uptake at 1 h [5, 21]: 4.74 ± 1.5 %ID/g
- tissue uptake at 4 h [5, 21]: 1.21 ± 0.86 %ID/g
- tissue uptake at 24 h [5, 21]: 2.12 ± 1.36 %ID/g
- tissue uptake at 1 h [5, 22]: 14.6 ± 4.89 %ID/g
- tissue uptake at 4 h [5, 22]: 2.17 ± 0.39 %ID/g
- tissue uptake at 24 h [5, 22]: 0.45 ± 0.08 %ID/g
Molecule: C[C@@H](O)[C@@H]1NC(=O)[C@H](CCCCN)NC(=O)[C@@H](Cc2c[nH]c3ccccc23)NC(=O)[C@H](Cc2ccc(O)cc2)NC(=O)[C@H](NC(=O)[C@H](Cc2ccc(Cl)cc2)NC(=O)C(CNCCN)CNCCN)CSSC[C@@H](C(=O)N[C@H](Cc2ccc(O)cc2)C(N)=O)NC1=O [[^99mTc]Tc-TECANT-2, metal not drawn]

- estimated half-life of dissociation [6]: 19 min
- estimated half-life of dissociation [7]: 98 min
B1: [^99mTc]Tc-TECANT-1 (peptide)
peptide: N4-[Phe(4-Cl)][dC]Y[dPhe(4-NHCONH2)]KTC[dY]-NH2
modifications: disulfide 2-7; also: N4 chelator holds 99mTc (dioxo-99mTc(V) complex)
notes: as TECANT-1: N4-p-Cl-Phe-cyclo(D-Cys-Tyr-D-Aph(Cbm)-Lys-Thr-Cys)-D-Tyr-NH2; F at 1 stands for p-Cl-Phe and F at 4 for D-Aph(Cbm); source: synthetic peptide (piChem), labelled with ^99mTc, used without further purification

Second part, the molecule before the results:

B2: ^natRe-TECANT-1 (peptide)
peptide: N4-[Phe(4-Cl)][dC]Y[dPhe(4-NHCONH2)]KTC[dY]-NH2
modifications: disulfide 2-7; also: N4 chelator holds natural rhenium
notes: as TECANT-1: N4-p-Cl-Phe-cyclo(D-Cys-Tyr-D-Aph(Cbm)-Lys-Thr-Cys)-D-Tyr-NH2; F at 1 stands for p-Cl-Phe and F at 4 for D-Aph(Cbm); surrogate of the Tc complex; also called [^natRe]Re-TECANT-1; Re-complex of TECANT-1; source: synthetic peptide (piChem), Re complex made with tetrabutylammonium-tetrachloro-oxo-rhenate (V)
- IC50 [8]: 5.01 ± 0.93 nM

B3: TECANT-1 (N4-p-Cl-Phe-cyclo(D-Cys-Tyr-D-Aph(Cbm)-Lys-Thr-Cys)-D-Tyr-NH2) (peptide)
peptide: N4-[Phe(4-Cl)][dC]Y[dPhe(4-NHCONH2)]KTC[dY]-NH2
modifications: disulfide 2-7
SMILES: C[C@@H](O)[C@@H]1NC(=O)[C@H](CCCCN)NC(=O)[C@@H](Cc2ccc(NC(N)=O)cc2)NC(=O)[C@H](Cc2ccc(O)cc2)NC(=O)[C@H](NC(=O)[C@H](Cc2ccc(Cl)cc2)NC(=O)C(CNCCN)CNCCN)CSSC[C@@H](C(=O)N[C@H](Cc2ccc(O)cc2)C(N)=O)NC1=O
notes: printed in three-letter code: N4-p-Cl-Phe-cyclo(D-Cys-Tyr-D-Aph(Cbm)-Lys-Thr-Cys)-D-Tyr-NH2; F at 1 stands for p-Cl-Phe and F at 4 for D-Aph(Cbm), both phenylalanine derivatives; SST2 antagonist based on LM3; non-metallated peptide conjugate; also called N4-LM3; source: synthetic peptide, custom made by piChem
- IC50 [8]: 4.14 ± 0.83 nM

B4: ^natRe-TECANT-2 (peptide)
peptide: N4-[Phe(4-Cl)][dC]Y[dW]KTC[dY]-NH2
modifications: disulfide 2-7; also: N4 chelator holds natural rhenium
notes: as TECANT-2: N4-p-Cl-Phe-cyclo(D-Cys-Tyr-D-Trp-Lys-Thr-Cys)-D-Tyr-NH2; F at 1 stands for p-Cl-Phe; surrogate of the Tc complex; also called [^natRe]Re-TECANT-2; Re-complex of TECANT-2; source: synthetic peptide (piChem), Re complex made with tetrabutylammonium-tetrachloro-oxo-rhenate (V)
- IC50 [8]: 4.47 ± 0.89 nM

B5: [^99mTc]Tc-TECANT-2 (peptide)
peptide: N4-[Phe(4-Cl)][dC]Y[dW]KTC[dY]-NH2
modifications: disulfide 2-7; also: N4 chelator holds 99mTc (dioxo-99mTc(V) complex)
notes: as TECANT-2: N4-p-Cl-Phe-cyclo(D-Cys-Tyr-D-Trp-Lys-Thr-Cys)-D-Tyr-NH2; F at 1 stands for p-Cl-Phe; also called ^99mTc-N4-SS01; source: synthetic peptide (piChem), labelled with ^99mTc, used without further purification
- estimated half-life of dissociation [6]: 7.5 min
- estimated half-life of dissociation [7]: 40.3 min
